Legend:
Assay in all cases: relative viability (nuclei count vs DMSO), 5 days (fraction); higher = more cells survive
AZ628 + Pictilisib = compound: CC1=C(C=C(C=C1)NC(=O)C2=CC(=CC=C2)C(C)(C)C#N)NC3=CC4=C(C=C3)N=CN(C4=O)C [AZ628] + CS(=O)(=O)N1CCN(Cc2cc3nc(-c4cccc5[nH]ncc45)nc(N4CCOCC4)c3s2)CC1 [Pictilisib] (partner 1 µM)
Summary of the method: (§1)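 Lung cancer cell lines were pin-tool dosed in 1536-well plates on the day after seeding, with either a lone drug or a fixed anchor-drug dose plus five library-drug doses (not always all listed) in √10 steps. Nuclei were counted on 4× images after 5 days. Relative viability is the ratio of treated-well to vehicle-well nuclei counts, with each value a median of duplicate plates.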

QS11 + Pemetrexed = compound: C1CC2=C(C1)C=C(C=C2)OC3=NC(=C4C(=N3)N(C=N4)CC5=CC=C(C=C5)C6=CC=CC=C6)N[C@@H](CC7=CC=CC=C7)CO [QS11] + Nc1nc2[nH]cc(CCc3ccc(C(=O)N[C@@H](CCC(=O)O)C(=O)O)cc3)c2c(=O)[nH]1 [Pemetrexed] (partner 0.2 µM)
Summary of the method: as §1

QS11 + Vorinostat = compound: C1CC2=C(C1)C=C(C=C2)OC3=NC(=C4C(=N3)N(C=N4)CC5=CC=C(C=C5)C6=CC=CC=C6)N[C@@H](CC7=CC=CC=C7)CO [QS11] + O=C(CCCCCCC(=O)Nc1ccccc1)NO [Vorinostat] (partner 1 µM)
Summary of the method: as §1

QS11 + OSI-027 = compound: C1CC2=C(C1)C=C(C=C2)OC3=NC(=C4C(=N3)N(C=N4)CC5=CC=C(C=C5)C6=CC=CC=C6)N[C@@H](CC7=CC=CC=C7)CO [QS11] + COc1cccc2cc(-c3nc([C@H]4CC[C@H](C(=O)O)CC4)n4ncnc(N)c34)[nH]c12 [OSI-027] (partner 0.5 µM)
Summary of the method: as §1

Row | Cell Line | relative viability (AZ628 + Pictilisib; first compound 0.08 µM) | relative viability (AZ628 + Pictilisib; first compound 0.253 µM) | relative viability (AZ628 + Pictilisib; first compound 0.8 µM) | relative viability (AZ628 + Pictilisib; first compound 2.53 µM) | relative viability (AZ628 + Pictilisib; first compound 8 µM) | relative viability (QS11 + Pemetrexed; first compound 0.253 µM) | relative viability (QS11 + Pemetrexed; first compound 0.8 µM) | relative viability (QS11 + Pemetrexed; first compound 2.53 µM) | relative viability (QS11 + Pemetrexed; first compound 8 µM) | relative viability (QS11 + Vorinostat; first compound 0.253 µM) | relative viability (QS11 + Vorinostat; first compound 0.8 µM) | relative viability (QS11 + Vorinostat; first compound 2.53 µM) | relative viability (QS11 + Vorinostat; first compound 8 µM) | relative viability (QS11 + OSI-027; first compound 0.08 µM) | relative viability (QS11 + OSI-027; first compound 0.253 µM) | relative viability (QS11 + OSI-027; first compound 0.8 µM) | relative viability (QS11 + OSI-027; first compound 2.53 µM) | relative viability (QS11 + OSI-027; first compound 8 µM) | relative viability (QS11 + Pemetrexed; first compound 0.08 µM) | relative viability (QS11 + Vorinostat; first compound 0.08 µM)
1 | PC-14 | 0.617 | 0.627 | 0.738 | 0.808 | 0.237 | 0.145 | 0.14 | 0.178 | 0.155 | 0.839 | 0.695 | 0.808 | 0.69 | 0.731 | 0.98 | 0.809 | 0.807 | 0.695 |  | 
2 | HCC-15 | 0.729 | 0.533 | 0.52 | 0.553 | 0.33 | 0.232 | 0.223 | 0.274 | 0.227 | 0.944 | 0.651 | 0.84 | 0.648 | 0.641 | 0.674 | 0.646 | 0.665 | 0.475 | 0.213 | 0.861
3 | NCI-H1437 | 0.505 | 0.476 | 0.526 | 0.532 | 0.483 | 0.331 | 0.301 | 0.286 | 0.271 | 0.751 | 0.616 | 0.609 | 0.39 | 0.95 | 0.946 | 0.77 | 0.834 | 0.827 | 0.314 | 0.894
4 | COR-L23 | 0.767 | 0.73 | 0.651 | 0.653 | 0.346 | 0.179 | 0.206 | 0.198 | 0.199 | 0.334 | 0.469 | 0.301 | 0.282 | 0.756 | 0.881 | 0.568 | 0.475 | 0.444 | 0.196 | 0.397
5 | NCI-H1975 | 0.309 | 0.285 | 0.29 | 0.277 | 0.206 | 0.279 | 0.332 | 0.326 | 0.307 | 0.783 | 0.752 | 0.795 | 0.654 | 0.737 | 0.674 | 0.741 | 0.659 | 0.805 | 0.302 | 0.669
6 | NCI-H1666 | 0.404 | 0.296 | 0.339 | 0.362 | 0.313 | 0.937 | 0.824 | 0.739 | 0.651 | 1.09 | 0.924 | 0.713 | 0.73 | 0.856 | 0.696 | 0.667 | 0.604 | 0.606 | 0.834 | 1.04
7 | A-427 | 0.43 | 0.364 | 0.333 | 0.177 | 0.132 | 0.985 |  | 0.989 | 0.979 | 0.844 |  | 0.877 | 0.844 | 0.411 | 0.455 |  | 0.507 | 0.408 | 0.967 | 0.902
8 | EKVX | 0.487 | 0.489 | 0.471 | 0.472 | 0.333 | 0.412 | 0.412 | 0.356 | 0.345 | 0.625 | 0.592 | 0.567 | 0.545 | 0.644 | 0.635 |  | 0.596 | 0.693 | 0.385 | 0.642
9 | NCI-H650 | 1.07 | 1 | 1.06 | 1.12 | 0.732 | 0.819 | 0.83 | 0.841 | 0.839 | 0.414 | 0.333 | 0.416 | 0.45 | 0.513 | 0.513 | 0.548 | 0.483 | 0.456 | 0.834 | 0.496
10 | NCI-H2087 | 0.617 | 0.35 | 0.325 | 0.341 | 0.291 | 0.646 | 0.675 | 0.692 | 0.757 | 0.667 | 0.599 | 0.625 | 0.665 | 0.523 | 0.5 |  | 0.532 | 0.532 | 0.646 | 1.03
11 | NCI-H1755 | 0.378 | 0.346 | 0.29 | 0.275 | 0.203 | 0.443 | 0.39 | 0.446 | 0.355 | 0.714 | 0.605 | 0.515 | 0.655 | 0.685 | 0.725 | 0.592 | 0.604 | 0.486 | 0.554 | 0.748
12 | COR-L 105 | 0.466 | 0.418 | 0.384 | 0.353 | 0.334 | 0.96 | 1.04 | 0.955 | 0.942 | 1.03 | 0.665 | 0.794 | 0.716 | 0.711 | 0.521 | 0.547 | 0.629 | 0.447 | 1.14 | 0.838
13 | NCI-H838 | 0.523 | 0.559 | 0.356 | 0.403 | 0.365 | 0.237 | 0.236 | 0.237 | 0.24 | 0.642 | 0.666 | 0.774 | 0.755 | 0.339 | 0.366 | 0.362 | 0.378 | 0.359 | 0.245 | 0.735
14 | NCI-H1993 | 0.784 | 0.829 | 0.705 | 0.769 | 0.726 | 0.503 | 0.618 | 0.573 | 0.618 | 0.629 | 0.776 | 0.983 | 0.498 | 0.582 | 0.674 | 0.547 | 0.538 | 0.5 | 0.649 | 0.972
15 | NCI-H1650 | 0.741 | 0.604 | 0.614 | 0.5 | 0.342 | 0.33 | 0.321 | 0.34 | 0.366 | 0.446 | 0.51 | 0.476 | 0.389 | 0.58 | 0.549 | 0.642 | 0.547 | 0.396 | 0.472 | 0.463
16 | HARA | 0.331 | 0.379 | 0.283 | 0.337 | 0.287 |  | 0.215 | 0.244 | 0.256 | 0.565 |  | 0.506 | 0.431 | 0.41 | 0.453 |  | 0.457 | 0.595 | 0.251 | 0.498

From the supplement of paper PMC10307832
